Data: ChEMBL document CHEMBL4819021, “Paratrimerins J-Y, Dimeric Coumarins Isolated from the Stems of Paramignya trimera” (J Nat Prod, 2021)
Calls of active or inactive are those of the source.

How the values were obtained:
Type in all cases: functional, cell-based
HCC1428 = test: Cytotoxicity against human HCC1428 cells assessed as reduction in cell viability at 40 uM measured after 72 hrs by MTS assay
HCC38 = test: Cytotoxicity against human HCC38 cells assessed as reduction in cell viability at 40 uM measured after 72 hrs by MTS assay
SK-HEP1 = test: Cytotoxicity against human SK-HEP1 cells assessed as reduction in cell viability at 40 uM measured after 72 hrs by MTS assay
RKO = test: Cytotoxicity against human RKO cells assessed as reduction in cell viability at 40 uM measured after 72 hrs by MTS assay
T47D = test: Cytotoxicity against human T47D cells assessed as reduction in cell viability at 40 uM measured after 72 hrs by MTS assay
SK-BR-3 = test: Cytotoxicity against human SK-BR-3 cells assessed as reduction in cell viability at 40 uM measured after 72 hrs by MTS assay
BT-549 = test: Cytotoxicity against human BT-549 cells assessed as reduction in cell viability at 40 uM measured after 72 hrs by MTS assay
COLO 205 = test: Cytotoxicity against human COLO 205 cells assessed as reduction in cell viability at 40 uM measured after 72 hrs by MTS assay
SW-620 = test: Cytotoxicity against human SW-620 cells assessed as reduction in cell viability at 40 uM measured after 72 hrs by MTS assay
HCT-8 = test: Cytotoxicity against human HCT-8 cells assessed as reduction in cell viability at 40 uM measured after 72 hrs by MTS assay
HCT-116 = test: Cytotoxicity against human HCT-116 cells assessed as reduction in cell viability at 40 uM measured after 72 hrs by MTS assay
MDA-MB-435 = test: Cytotoxicity against human MDA-MB-435 cells assessed as reduction in cell viability at 40 uM measured after 72 hrs by MTS assay
MCF7 = test: Cytotoxicity against human MCF7 cells assessed as reduction in cell viability at 40 uM measured after 72 hrs by MTS assay
HCC70 = test: Cytotoxicity against human HCC70 cells assessed as reduction in cell viability at 40 uM measured after 72 hrs by MTS assay
Hs-578T = test: Cytotoxicity against human Hs-578T cells assessed as reduction in cell viability at 40 uM measured after 72 hrs by MTS assay
MDA-MB-468 = test: Cytotoxicity against human MDA-MB-468 cells assessed as reduction in cell viability at 40 uM measured after 72 hrs by MTS assay
SW480 = test: Cytotoxicity against human SW480 cells assessed as reduction in cell viability at 40 uM measured after 72 hrs by MTS assay
MDA-MB-231 = test: Cytotoxicity against human MDA-MB-231 cells assessed as reduction in cell viability at 40 uM measured after 72 hrs by MTS assay
KM12 = test: Cytotoxicity against human KM12 cells assessed as reduction in cell viability at 40 uM measured after 72 hrs by MTS assay

Measured: Activity

CC1=C[C@@H](c2cc3ccc(=O)oc3cc2O[C@@H]2O[C@H](CO)[C@@H](O)[C@H](O)[C@H]2O)[C@@](C)(/C=C/c2cc3ccc(=O)oc3cc2O[C@@H]2O[C@H](CO[C@@H]3OC[C@](O)(CO)[C@H]3O)[C@@H](O)[C@H](O)[C@H]2O)CC1
inactive: all assays above

CC1=C[C@@H](c2cc3ccc(=O)oc3cc2O[C@@H]2O[C@H](CO[C@@H]3OC[C@](O)(CO)[C@H]3O)[C@@H](O)[C@H](O)[C@H]2O)[C@@](C)(/C=C/c2cc3ccc(=O)oc3cc2O[C@@H]2O[C@H](CO)[C@@H](O)[C@H](O)[C@H]2O)CC1
inactive: all assays above

CC1=C[C@H](c2cc3ccc(=O)oc3cc2O[C@@H]2O[C@H](CO)[C@@H](O)[C@H](O)[C@H]2O)[C@](C)(/C=C/c2cc3ccc(=O)oc3cc2O[C@@H]2O[C@H](CO[C@@H]3OC[C@](O)(CO)[C@H]3O)[C@@H](O)[C@H](O)[C@H]2O)CC1
inactive: all assays above

CC1=C[C@H](c2cc3ccc(=O)oc3cc2O[C@@H]2O[C@H](COC3OC[C@@H](O)[C@H](O)[C@H]3O)[C@@H](O)[C@H](O)[C@H]2O)[C@@](C)(/C=C/c2cc3ccc(=O)oc3cc2O[C@@H]2O[C@H](CO)[C@@H](O)[C@H](O)[C@H]2O)CC1 (stereo partly drawn)
inactive: all assays above

CC1=C[C@H](c2cc3ccc(=O)oc3cc2O[C@@H]2O[C@H](COC3OC[C@@H](O)[C@H](O)[C@H]3O)[C@@H](O)[C@H](O)[C@H]2O)[C@](C)(/C=C/c2cc3ccc(=O)oc3cc2O[C@@H]2O[C@H](CO)[C@@H](O)[C@H](O)[C@H]2O)CC1 (stereo partly drawn)
inactive: all assays above

CC1=C[C@H](c2cc3ccc(=O)oc3cc2O[C@@H]2O[C@H](CO)[C@@H](O)[C@H](O)[C@H]2O)[C@@](C)(/C=C/c2cc3ccc(=O)oc3cc2O[C@@H]2O[C@H](COC3OC[C@@H](O)[C@H](O)[C@H]3O)[C@@H](O)[C@H](O)[C@H]2O)CC1 (stereo partly drawn)
inactive: all assays above

CC1=C[C@@H](c2cc3ccc(=O)oc3cc2O[C@@H]2O[C@H](CO)[C@@H](O)[C@H](O)[C@H]2O)[C@@](C)(/C=C/c2cc3ccc(=O)oc3cc2O[C@@H]2O[C@H](COC3OC[C@@H](O)[C@H](O)[C@H]3O)[C@@H](O)[C@H](O)[C@H]2O)CC1 (stereo partly drawn)
inactive: all assays above
